This note sets out measurements from patent US5213797A, “A80407 antibiotics” (Eli Lilly and Company, priority 1990, dated 1993).

This test concerns Kibdelosporangium philippinensis (cultures A80407 and A80407.4). Description: Resistance to antibiotics of the producing cultures, antibiotic sensitivity discs on seeded ISP No. 2 agar. As to conditions: both cultures.

Consider `CC(=O)OCC1=C(C(=O)O)N2C(=O)[C@@H](NC(=O)Cc3cccs3)[C@H]2SC1` [cephalothin], for which the Resistance to antibiotics result (30 μg) is recorded as “resistant”.

`O=C(N[C@H](CO)[C@H](O)c1ccc([N+](=O)[O-])cc1)C(Cl)Cl` [chloramphenicol]: the Resistance to antibiotics entry (30 μg) is recorded as “sensitive”. In the case of `CC[C@H]1OC(=O)[C@H](C)[C@@H](O[C@H]2C[C@@](C)(OC)[C@@H](O)[C@H](C)O2)[C@H](C)[C@@H](O[C@@H]2O[C@H](C)C[C@H](N(C)C)[C@H]2O)[C@](C)(O)C[C@@H](C)C(=O)[C@H](C)[C@@H](O)[C@]1(C)O` [erythromycin], the Resistance to antibiotics result (15 μg) was “sensitive”. Regarding `CCC[C@@H]1C[C@@H](C(=O)N[C@@H]([C@H]2O[C@H](SC)[C@H](O)[C@@H](O)[C@H]2O)[C@@H](C)O)N(C)C1` [lincomycin], the Resistance to antibiotics entry (2 μg) was “resistant”. In the case of `C1N2CN3CN1CN(C2)C3` [mandelamine], the Resistance to antibiotics entry (3 μg) is “sensitive”. As to `CCn1cc(C(=O)O)c(=O)c2ccc(C)nc21` [nalidixic acid], where the note is “30 μg”, the Resistance to antibiotics result is “resistant”. `NC[C@@H]1O[C@H](O[C@H]2[C@@H](O)[C@H](O[C@@H]3[C@@H](O)[C@H](N)C[C@H](N)[C@H]3O[C@H]3O[C@H](CN)[C@@H](O)[C@H](O)[C@H]3N)O[C@@H]2CO)[C@H](N)[C@@H](O)[C@@H]1O` [neomycin]: the Resistance to antibiotics entry (30 μg) is listed as “sensitive”.

As for `CO[C@@H]1[C@@H](OC(N)=O)[C@@H](O)[C@H](Oc2ccc3c(O)c(NC(=O)c4ccc(O)c(CC=C(C)C)c4)c(=O)oc3c2C)OC1(C)C` [novobiocin], the Resistance to antibiotics entry (30 μg) is “sensitive”. Take `CC1(C)S[C@@H]2[C@H](NC(=O)Cc3ccccc3)C(=O)N2[C@H]1C(=O)O` [penicillin G]: for the setting “10 units”, the Resistance to antibiotics entry was “resistant”. In the case of `CO[C@H]1/C=C/O[C@@]2(C)Oc3c(C)c(O)c4c(O)c(c(/C=N/N5CCN(C)CC5)c(O)c4c3C2=O)NC(=O)/C(C)=C\C=C\[C@H](C)[C@H](O)[C@@H](C)[C@@H](O)[C@@H](C)[C@H](OC(C)=O)[C@@H]1C` [rifampin], the Resistance to antibiotics result (5 μg) is listed as “sensitive”. Turning to `Nc1ccc(S(=O)(=O)Nc2ncccn2)cc1` [sulfadiazine], the Resistance to antibiotics result (300 units) was “resistant”. In the case of `CN(C)C1C(=O)C(C(N)=O)=C(O)C2(O)C(=O)C3=C(O)c4c(O)cccc4C(C)(O)C3CC12` (stereo not drawn) [tetracycline], the Resistance to antibiotics result (10 μg) is given as “sensitive”.

In the case of `NC[C@H]1O[C@H](O[C@H]2[C@H](O)[C@@H](O[C@H]3O[C@H](CO)[C@@H](O)[C@H](N)[C@H]3O)[C@H](N)C[C@@H]2N)[C@H](N)C[C@@H]1O` [tobramycin], the Resistance to antibiotics result (10 μg) is given as “resistant”.

Regarding `COc1cc(Cc2cnc(N)nc2N)cc(OC)c1OC` [trimethoprim], the Resistance to antibiotics entry (5 μg) is listed as “resistant”.

`CN[C@H](CC(C)C)C(=O)N[C@H]1C(=O)N[C@@H](CC(N)=O)C(=O)N[C@H]2C(=O)N[C@H]3C(=O)N[C@H](C(=O)N[C@H](C(=O)O)c4cc(O)cc(O)c4-c4cc3ccc4O)[C@H](O)c3ccc(c(Cl)c3)Oc3cc2cc(c3O[C@@H]2O[C@H](CO)[C@@H](O)[C@H](O)[C@H]2O[C@H]2C[C@](C)(N)[C@H](O)[C@H](C)O2)Oc2ccc(cc2Cl)[C@H]1O` [vancomycin]: the Resistance to antibiotics entry (30 μg) was “resistant”.

For the compound gentamycin, under “10 μg”, the Resistance to antibiotics entry was “sensitive”. On to oleandomycin, for which the Resistance to antibiotics result (15 μg) is listed as “resistant”.

In the case of polymixin B, under “300 units”, the Resistance to antibiotics result was “resistant”.
